Data as given in patent publication US6750028B1, “Anti-fibrotic agent assay” (Ethicon, Inc, priority 1996, dated 2004).

What was measured:
TGF-β1 activation = experiment: Macrophage activation assay (IC-21 macrophages, LPS, fetal fibroblast conditioned media, ELISA); type: cell-based, mouse; details: 1 μM
Experimental: Cultured macrophages were lifted from the dish with 3 ml of PBS. The PBS was balanced with 15 ml of RPMI-1640 containing 10% FBS. The cells were counted and then seeded in 100 mm plates at 1×10^6 cells/dish. When the cultured macrophages reached approximately 70% confluency (2-3 days) they were washed with PBS and RPMI-1640 medium containing 5% FBS and 10 ng/ml LPS was applied (FIG. 1). After 24 h of activation with LPS the cells were washed gently with PBS. At this point conditioned medium from confluent fetal dermal fibroblasts was collected and 5 ml was distributed into each dish containing macrophages. The cells were incubated for an additional 24 h, the media were collected, spun down at 600×g for 10 min and stored at 4° C. before TGF-β1 evaluation by ELISA. Each condition was done in duplicate. The cells, washed with PBS, were harvested for total RNA extraction.
Fetal dermal fibroblasts were seeded in 100 mm dishes at 1×10^6 cell/dish. The cells were grown to confluency (2-3 days). The cultures were washed with PBS and fresh medium, either DMEM supplemented with 10% FBS or AIM-V medium (a serum free medium) for serum-free conditions, was applied for 24 h (FIG. 1). The medium was collected and combined in order to obtain a homogenous pool of latent TGF-β1. The collection of the medium was done just prior to application in the macrophage assay.
Each measurement was performed in duplicates.

[1] = system: tissue Transglutaminase II mRNA; experiment: mRNA for TGase II in macrophages by RT-PCR densitometry; type: cell-based, mouse; details: 1 μM hydrocortisone, densitometry of RT-PCR products, FIG. 3
Experimental: The cells were washed with PBS, followed by addition of the extraction buffer provided with the kit (RNeasy RNA extraction kit). The lysed cells were scraped from the dish and collected in microtubes. Samples were either frozen at −70° C. before analysis or directly assessed following manufacturer protocol. Absorbance at 260 nm and 280 nm was measured and the integrity of RNA was evaluated by denaturing formaldehyde agarose gels stained with ethidium bromide.
The procedure used to transcribe the total RNA was described in detail previously (28). […]
A portion of the first strand cDNA reaction was used in PCR, which was carried out in 25 μl containing 16 mM Tris-HCl, pH 8.3, 50 mM KCl, 1.5 mM MgCl2, 0.01% gelatin, 200 μM of each dNTPs, 1 μM each sense and antisense oligonucleotides and 2.5 units of AmpliTaq DNA polymerase. […] Sizes were determined using Q X 174 DNA/Hae III markers. […] Densitometry was used for quantitative analysis of the ethidium bromide stained gels.
In an attempt to identify the mechanism of this inhibition, the level of mRNA was evaluated for TGase II in macrophages treated with 1 μM hydrocortisone.

## C[C@]12CCC(=O)C=C1CC[C@@H]1[C@@H]2[C@@H](O)C[C@@]2(C)[C@H]1CC[C@]2(O)C(=O)CO [Hydrocortisone, hydrocortisone]
TGF-β1 activation
  active TGF-β1, % Control (STD): 64.0 (0.4) %
TGF-β1 activation; listed as hydrocortisone
  active TGF-β1, % Control (STD): 64.0%
[1]
  level of mRNA for TGase II, reduced to: 37.5%
